Laboratory results: US20220323406A1, “METHODS AND COMPOSITIONS FOR DIFFERENTIATING STEM CELLS” (Massachusetts Institute of Technology, priority 2019, published 2022)

Legend:
[1] = system: ENR+CD organoids (ISC to Paneth cell differentiation); experiment: Primary screen: CCh-stimulated lysozyme secretion LYZ.S, 2.5-D 384-well ENR+CD organoid differentiation; format: cell-based, mouse; details: primary screen
Source text: (§1) High-throughput screening.

[2] = system: ENR+CD organoids (ISC to Paneth cell differentiation); experiment: Primary screen: basal (non-stimulated) lysozyme secretion LYZ.NS, 2.5-D 384-well ENR+CD organoid differentiation; format: cell-based, mouse; details: primary screen; for Z.LYZ.NS: standard z score
Source text: as §1

ENR+CD organoids = experiment: Primary screen: ATP (CellTiter-Glo 3D, CTG) cell number/viability, 2.5-D 384-well ENR+CD organoids; details: primary screen; for Z.CTG: standard z score;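 for all read-outs here: compounds given at plating and again on day 3 over a 6-day differentiation from ENR+CV stem-cell-enriched precursors, ATP measured on day 6, plate median as control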

Compound | Z.LYZ.NS (standard z score) ([2]; dose 0.08 uM) | Z.LYZ.NS (standard z score) ([2]; dose 0.40 uM) | Z.LYZ.NS (standard z score) ([2]; dose 2.00 uM) | Z.LYZ.NS (standard z score) ([2]; dose 10.00 uM) | Dose.FC.LYZ.S ([1]; dose 0.08 uM) [log2 fold change] | Dose.FC.LYZ.S ([1]; dose 0.40 uM) [log2 fold change] | Dose.FC.LYZ.S ([1]; dose 2.00 uM) [log2 fold change] | Dose.FC.LYZ.S ([1]; dose 10.00 uM) [log2 fold change] | Dose.FC.LYZ.NS ([2]; dose 0.08 uM) [log2 fold change] | Dose.FC.LYZ.NS ([2]; dose 0.40 uM) [log2 fold change] | Dose.FC.LYZ.NS ([2]; dose 2.00 uM) [log2 fold change] | Dose.FC.LYZ.NS ([2]; dose 10.00 uM) [log2 fold change] | Z.LYZ.NS ([2]; dose 0.08 uM) | Z.LYZ.NS ([2]; dose 0.40 uM) | Z.LYZ.NS ([2]; dose 2.00 uM) | Z.LYZ.NS ([2]; dose 10.00 uM) | Dose.FC.CTG (ENR+CD organoids; dose 0.08 uM) [log2 fold change] | Dose.FC.CTG (ENR+CD organoids; dose 0.40 uM) [log2 fold change] | Dose.FC.CTG (ENR+CD organoids; dose 2.00 uM) [log2 fold change] | Dose.FC.CTG (ENR+CD organoids; dose 10.00 uM) [log2 fold change] | further results
Maraviroc | 0.411 | 0.358 | 0.269 | 0.759 |  |  |  |  |  |  |  |  |  |  |  |  |  |  |  |  | Dose.FC.LYZ.S (log2 fold change) ([1]; dose 0.08 uM): 0.054; Dose.FC.LYZ.S (log2 fold change) ([1]; dose 0.40 uM): 0.195; Dose.FC.LYZ.S (log2 fold change) ([1]; dose 2.00 uM): 0.005; Dose.FC.LYZ.S (log2 fold change) ([1]; dose 10.00 uM): 0.077; Dose.FC.LYZ.NS (log2 fold change) ([2]; dose 0.08 uM): 0.047; Dose.FC.LYZ.NS (log2 fold change) ([2]; dose 0.40 uM): 0.041; Dose.FC.LYZ.NS (log2 fold change) ([2]; dose 2.00 uM): 0.031; Dose.FC.LYZ.NS (log2 fold change) ([2]; dose 10.00 uM): 0.087; Dose.FC.CTG (log2 fold change) (ENR+CD organoids; dose 0.08 uM): −0.084; Dose.FC.CTG (log2 fold change) (ENR+CD organoids; dose 0.40 uM): 0.079; Dose.FC.CTG (log2 fold change) (ENR+CD organoids; dose 2.00 uM): −0.009; Dose.FC.CTG (log2 fold change) (ENR+CD organoids; dose 10.00 uM): 0.139
C[C@@H]1C(=O)O[C@H]2C[C@@]34[C@H]5C[C@@H](C(C)(C)C)[C@]36[C@@H](OC(=O)[C@@H]6O)O[C@@]4(C(=O)O5)[C@]21O [Ginkgolide A] |  |  |  |  | 0.124 | 0.161 | 0.002 | −0.028 | 0.045 | 0.025 | 0.030 | 0.052 | 0.395 | 0.222 | 0.258 | 0.450 | 0.005 | −0.017 | 0.040 | −0.012 | Z.CTG (ENR+CD organoids; dose 0.08 uM): 0.011; Z.CTG (ENR+CD organoids; dose 0.40 uM): −0.040; Z.CTG (ENR+CD organoids; dose 2.00 uM): 0.095; Z.CTG (ENR+CD organoids; dose 10.00 uM): −0.028
CCOC(=O)[C@H]1O[C@@H]1C(=O)N[C@@H](CC(C)C)C(=O)NCCC(C)C [Aloxistatin] | 0.171 | −0.250 | −0.324 | −1.236 | 0.025 | −0.016 | −0.091 | −0.181 | 0.020 | −0.029 | −0.037 | −0.142 |  |  |  |  | −0.006 | −0.006 | −0.129 | −0.214 | 
O=C(NC(NC(=S)Nc1ccc(F)c([N+](=O)[O-])c1)C(Cl)(Cl)Cl)C(c1ccccc1)c1ccccc1 (stereo not drawn) [CGK733] |  |  |  |  | 0.008 | −0.018 | −0.125 | −0.230 | 0.099 | −0.026 | −0.099 | −0.122 | 0.863 | −0.222 | −0.865 | −1.063 | −0.362 | −0.093 | −0.244 | −0.478 | Z.CTG (ENR+CD organoids; dose 0.08 uM): −0.864; Z.CTG (ENR+CD organoids; dose 0.40 uM): −0.221; Z.CTG (ENR+CD organoids; dose 2.00 uM): −0.582; Z.CTG (ENR+CD organoids; dose 10.00 uM): −1.143
